According to patent US20030129629A1, “Methods and compositions for the identification, assessment, prevention, and therapy of human cancers” (Millennium Pharmaceuticals, Inc., priority 2000, published 2003):
Structures can show the parent of a compound that is named as a salt.

Tested on: 60 cancer cell lines (NCI 60 cancer cell line series)
Test: NCI-DTP in vitro cancer screen, sulforhodamine B (SRB) growth inhibition, 48 hour exposure
Format: cell-based, human
How it was run: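 NCI-DTP panel of 60 cancer cell lines plated day 0 at line-specific densities, exposed from day 1 to compound at 5 ten-fold-spaced doses in duplicate wells. After 48 h, cell mass stained with sulforhodamine B; −log GI50 derived from dose–response curves, averaged, and classed Low, Medium or High sensitivity.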

CC[C@]1(O)C[C@@H]2CN(CCc3c([nH]c4ccccc34)[C@@](C(=O)OC)(c3cc4c(cc3OC)N(C)[C@H]3[C@@](O)(C(=O)OC)[C@H](OC(C)=O)[C@]5(CC)C=CCN6CC[C@]43[C@@H]65)C2)C1 [Vinblastine sulfate]
classification of cell line as Low(1), Medium(2), High(3) sensitivity to compound (Breast HS-578T CL5006): 3
classification of cell line as Low(1), Medium(2), High(3) sensitivity to compound (Breast MCF7/ADRr CL5002): 1
classification of cell line as Low(1), Medium(2), High(3) sensitivity to compound (Breast MDA-MB-231 CL5005): 2
classification of cell line as Low(1), Medium(2), High(3) sensitivity to compound (Breast MDA-MB-435 CL5011): 3
classification of cell line as Low(1), Medium(2), High(3) sensitivity to compound (Breast MDA-N CL5012): 3
classification of cell line as Low(1), Medium(2), High(3) sensitivity to compound (CNS SF-268 CL12014): 2
classification of cell line as Low(1), Medium(2), High(3) sensitivity to compound (CNS SF-295 CL12015): 2
classification of cell line as Low(1), Medium(2), High(3) sensitivity to compound (CNS SF-539 CL12016): 2
classification of cell line as Low(1), Medium(2), High(3) sensitivity to compound (CNS SNB-19 CL12002): 2
classification of cell line as Low(1), Medium(2), High(3) sensitivity to compound (CNS U251(I) CL12009): 2
classification of cell line as Low(1), Medium(2), High(3) sensitivity to compound (Colon HCC-2998 CL4002): 2
classification of cell line as Low(1), Medium(2), High(3) sensitivity to compound (Colon HCT-15 CL4015): 1
classification of cell line as Low(1), Medium(2), High(3) sensitivity to compound (Colon KM12 CL4017): 2
classification of cell line as Low(1), Medium(2), High(3) sensitivity to compound (Colon SW-620 CL4009): 2
classification of cell line as Low(1), Medium(2), High(3) sensitivity to compound (Leukemia CCRF-CEM(I) CL7003): 2
classification of cell line as Low(1), Medium(2), High(3) sensitivity to compound (Leukemia HL-60(I) CL7008): 3
classification of cell line as Low(1), Medium(2), High(3) sensitivity to compound (Leukemia MOLT-4 CL7006): 2
classification of cell line as Low(1), Medium(2), High(3) sensitivity to compound (Melanoma M14 CL10014): 2
classification of cell line as Low(1), Medium(2), High(3) sensitivity to compound (Melanoma MALME-3M CL10002): 2
classification of cell line as Low(1), Medium(2), High(3) sensitivity to compound (Melanoma SK-MEL-2 CL10005): 2
classification of cell line as Low(1), Medium(2), High(3) sensitivity to compound (Melanoma SK-MEL-5 CL10007): 3
classification of cell line as Low(1), Medium(2), High(3) sensitivity to compound (Melanoma SK-MEL-28 CL10008): 2
classification of cell line as Low(1), Medium(2), High(3) sensitivity to compound (Melanoma UACC-62 CL10020): 3
classification of cell line as Low(1), Medium(2), High(3) sensitivity to compound (NSCLC A549/ATCC CL1004): 2
classification of cell line as Low(1), Medium(2), High(3) sensitivity to compound (NSCLC EKVX CL1008): 1
classification of cell line as Low(1), Medium(2), High(3) sensitivity to compound (NSCLC HOP-62 CL1026): 2
classification of cell line as Low(1), Medium(2), High(3) sensitivity to compound (NSCLC HOP-92 CL1029): 2
sensitivity classification Low(1)/Medium(2)/High(3) (NSCLC NCI-H23(I) CL1001): 2
classification of cell line as Low(1), Medium(2), High(3) sensitivity to compound (NSCLC NCI-H226 CL1013): 2
sensitivity classification Low(1)/Medium(2)/High(3) (NSCLC NCI-H332M CL1017): 2
sensitivity classification Low(1)/Medium(2)/High(3) (NSCLC NCI-H460 CL1021): 2
sensitivity classification Low(1)/Medium(2)/High(3) (NSCLC NCI-H522 CL1003): 3
sensitivity classification Low(1)/Medium(2)/High(3) (Ovarian IGROV1 CL6010): 2
sensitivity classification Low(1)/Medium(2)/High(3) (Ovarian OVCAR-3 CL6001): 3
sensitivity classification Low(1)/Medium(2)/High(3) (Ovarian OVCAR-8 CL6005): 2
sensitivity classification Low(1)/Medium(2)/High(3) (Ovarian SK-OV-3 CL6011): 2
sensitivity classification Low(1)/Medium(2)/High(3) (Renal 786-0 CL9018): 2
sensitivity classification Low(1)/Medium(2)/High(3) (Renal CAKI-1 CL9015): 2
sensitivity classification Low(1)/Medium(2)/High(3) (Renal RXF-393 CL9016): 2
sensitivity classification Low(1)/Medium(2)/High(3) (Renal SN12C CL9008): 2
sensitivity classification Low(1)/Medium(2)/High(3) (Renal TK10 CL9024): 1
sensitivity classification Low(1)/Medium(2)/High(3) (Renal UO-31 CL9004): 1

CC[C@]1(O)C[C@H]2CN(CCc3c([nH]c4ccccc34)[C@@](C(=O)OC)(c3cc4c(cc3OC)N(C=O)[C@H]3[C@@](O)(C(=O)OC)[C@H](OC(C)=O)[C@]5(CC)C=CCN6CC[C@]43[C@@H]65)C2)C1 [Vincristine sulfate]
classification of cell line as Low(1), Medium(2), High(3) sensitivity to compound (Breast BT-549 CL5013): 1
classification of cell line as Low(1), Medium(2), High(3) sensitivity to compound (Breast HS-578T CL5006): 2
classification of cell line as Low(1), Medium(2), High(3) sensitivity to compound (Breast MCF7(I) CL5001): 2
classification of cell line as Low(1), Medium(2), High(3) sensitivity to compound (Breast MCF7/ADRr CL5002): 2
classification of cell line as Low(1), Medium(2), High(3) sensitivity to compound (Breast MDA-MB-231 CL5005): 2
classification of cell line as Low(1), Medium(2), High(3) sensitivity to compound (Breast MDA-MB-435 CL5011): 2
classification of cell line as Low(1), Medium(2), High(3) sensitivity to compound (Breast MDA-N CL5012): 2
classification of cell line as Low(1), Medium(2), High(3) sensitivity to compound (Breast T-47D CL5014): 1
classification of cell line as Low(1), Medium(2), High(3) sensitivity to compound (CNS SF-268 CL12014): 2
classification of cell line as Low(1), Medium(2), High(3) sensitivity to compound (CNS SF-295 CL12015): 3
classification of cell line as Low(1), Medium(2), High(3) sensitivity to compound (CNS SF-539 CL12016): 3
classification of cell line as Low(1), Medium(2), High(3) sensitivity to compound (CNS SNB-19 CL12002): 2
classification of cell line as Low(1), Medium(2), High(3) sensitivity to compound (CNS SNB-75(I) CL12005): 2
classification of cell line as Low(1), Medium(2), High(3) sensitivity to compound (CNS U251(I) CL12009): 2
classification of cell line as Low(1), Medium(2), High(3) sensitivity to compound (Colon COLO-250 CL4010): 2
classification of cell line as Low(1), Medium(2), High(3) sensitivity to compound (Colon HCC-2998 CL4002): 2
classification of cell line as Low(1), Medium(2), High(3) sensitivity to compound (Colon HCT-15 CL4015): 2
classification of cell line as Low(1), Medium(2), High(3) sensitivity to compound (Colon HCT-116 CL4003): 2
classification of cell line as Low(1), Medium(2), High(3) sensitivity to compound (Colon HT29(I) CL4001): 3
classification of cell line as Low(1), Medium(2), High(3) sensitivity to compound (Colon KM12 CL4017): 3
classification of cell line as Low(1), Medium(2), High(3) sensitivity to compound (Colon SW-620 CL4009): 3
classification of cell line as Low(1), Medium(2), High(3) sensitivity to compound (Leukemia CCRF-CEM(I) CL7003): 3
classification of cell line as Low(1), Medium(2), High(3) sensitivity to compound (Leukemia HL-60(I) CL7008): 3
classification of cell line as Low(1), Medium(2), High(3) sensitivity to compound (Leukemia K562(I) CL7005): 3
classification of cell line as Low(1), Medium(2), High(3) sensitivity to compound (Leukemia MOLT-4 CL7006): 3
classification of cell line as Low(1), Medium(2), High(3) sensitivity to compound (Leukemia RPMI-8226(I) CL7010): 3
classification of cell line as Low(1), Medium(2), High(3) sensitivity to compound (Leukemia SR CL7019): 3
classification of cell line as Low(1), Medium(2), High(3) sensitivity to compound (Melanoma LOX IMVI CL10001): 3
classification of cell line as Low(1), Medium(2), High(3) sensitivity to compound (Melanoma M14 CL10014): 2
classification of cell line as Low(1), Medium(2), High(3) sensitivity to compound (Melanoma MALME-3M CL10002): 2
classification of cell line as Low(1), Medium(2), High(3) sensitivity to compound (Melanoma SK-MEL-2 CL10005): 2
classification of cell line as Low(1), Medium(2), High(3) sensitivity to compound (Melanoma SK-MEL-5 CL10007): 3
classification of cell line as Low(1), Medium(2), High(3) sensitivity to compound (Melanoma SK-MEL-28 CL10008): 1
classification of cell line as Low(1), Medium(2), High(3) sensitivity to compound (Melanoma UACC-62 CL10020): 2
classification of cell line as Low(1), Medium(2), High(3) sensitivity to compound (Melanoma UACC-257 CL10021): 2
classification of cell line as Low(1), Medium(2), High(3) sensitivity to compound (NSCLC A549/ATCC CL1004): 2
classification of cell line as Low(1), Medium(2), High(3) sensitivity to compound (NSCLC EKVX CL1008): 1
classification of cell line as Low(1), Medium(2), High(3) sensitivity to compound (NSCLC HOP-62 CL1026): 2
classification of cell line as Low(1), Medium(2), High(3) sensitivity to compound (NSCLC HOP-92 CL1029): 2
sensitivity classification Low(1)/Medium(2)/High(3) (NSCLC NCI-H23(I) CL1001): 3
classification of cell line as Low(1), Medium(2), High(3) sensitivity to compound (NSCLC NCI-H226 CL1013): 2
sensitivity classification Low(1)/Medium(2)/High(3) (NSCLC NCI-H332M CL1017): 2
sensitivity classification Low(1)/Medium(2)/High(3) (NSCLC NCI-H460 CL1021): 3
sensitivity classification Low(1)/Medium(2)/High(3) (NSCLC NCI-H522 CL1003): 3
sensitivity classification Low(1)/Medium(2)/High(3) (Ovarian IGROV1 CL6010): 3
sensitivity classification Low(1)/Medium(2)/High(3) (Ovarian OVCAR-3 CL6001): 3
sensitivity classification Low(1)/Medium(2)/High(3) (Ovarian OVCAR-4 CL6002): 2
sensitivity classification Low(1)/Medium(2)/High(3) (Ovarian OVCAR-5 CL6003): 1
sensitivity classification Low(1)/Medium(2)/High(3) (Ovarian OVCAR-8 CL6005): 3
sensitivity classification Low(1)/Medium(2)/High(3) (Ovarian SK-OV-3 CL6011): 2
sensitivity classification Low(1)/Medium(2)/High(3) (Prostate DU-145 CL11003): 2
sensitivity classification Low(1)/Medium(2)/High(3) (Prostate PC-3(I) CL11001): 2
sensitivity classification Low(1)/Medium(2)/High(3) (Renal 786-0 CL9018): 2
sensitivity classification Low(1)/Medium(2)/High(3) (Renal A498 CL9013): 3
sensitivity classification Low(1)/Medium(2)/High(3) (Renal ACHN CL9023): 2
sensitivity classification Low(1)/Medium(2)/High(3) (Renal CAKI-1 CL9015): 2
sensitivity classification Low(1)/Medium(2)/High(3) (Renal RXF-393 CL9016): 2
sensitivity classification Low(1)/Medium(2)/High(3) (Renal SN12C CL9008): 2
sensitivity classification Low(1)/Medium(2)/High(3) (Renal TK10 CL9024): 1
sensitivity classification Low(1)/Medium(2)/High(3) (Renal UO-31 CL9004): 1
